Legend:
[1] = target: T1, SMARCA4 (Homo sapiens, UniProt P51532); experiment: SMARCA4 HiBiT degradation assay in HeLa cells; type: cell-based; settings: 18 hours, highest concentration 10 μM
T1 construct: SMARCA4-HiBiT knock-in Hela monoclonal cell (CS3023226); host or cells: HeLa monoclonal cells with heterozygous HiBiT knock-in at the endogenous SMARCA4 locus
In short: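 HeLa monoclonal cells with HiBiT knocked into SMARCA4 were seeded at 2500 cells/well, dosed with compound and incubated 18 hours at 37° C. HiBiT signal reported remaining SMARCA4 protein, and values came from curve fitting.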

[2] = target: T2, SMARCA2 (Homo sapiens, UniProt P51531); experiment: SMARCA2 HiBiT degradation assay in HeLa cells; type: cell-based; settings: 18 hours, highest concentration 10 μM
T2 construct: SMARCA2-HiBiT knock-in Hela monoclonal cell (CS302366); host or cells: HeLa monoclonal cells with heterozygous HiBiT knock-in at the endogenous SMARCA2 locus
T2 sequence (P51531 whole entry): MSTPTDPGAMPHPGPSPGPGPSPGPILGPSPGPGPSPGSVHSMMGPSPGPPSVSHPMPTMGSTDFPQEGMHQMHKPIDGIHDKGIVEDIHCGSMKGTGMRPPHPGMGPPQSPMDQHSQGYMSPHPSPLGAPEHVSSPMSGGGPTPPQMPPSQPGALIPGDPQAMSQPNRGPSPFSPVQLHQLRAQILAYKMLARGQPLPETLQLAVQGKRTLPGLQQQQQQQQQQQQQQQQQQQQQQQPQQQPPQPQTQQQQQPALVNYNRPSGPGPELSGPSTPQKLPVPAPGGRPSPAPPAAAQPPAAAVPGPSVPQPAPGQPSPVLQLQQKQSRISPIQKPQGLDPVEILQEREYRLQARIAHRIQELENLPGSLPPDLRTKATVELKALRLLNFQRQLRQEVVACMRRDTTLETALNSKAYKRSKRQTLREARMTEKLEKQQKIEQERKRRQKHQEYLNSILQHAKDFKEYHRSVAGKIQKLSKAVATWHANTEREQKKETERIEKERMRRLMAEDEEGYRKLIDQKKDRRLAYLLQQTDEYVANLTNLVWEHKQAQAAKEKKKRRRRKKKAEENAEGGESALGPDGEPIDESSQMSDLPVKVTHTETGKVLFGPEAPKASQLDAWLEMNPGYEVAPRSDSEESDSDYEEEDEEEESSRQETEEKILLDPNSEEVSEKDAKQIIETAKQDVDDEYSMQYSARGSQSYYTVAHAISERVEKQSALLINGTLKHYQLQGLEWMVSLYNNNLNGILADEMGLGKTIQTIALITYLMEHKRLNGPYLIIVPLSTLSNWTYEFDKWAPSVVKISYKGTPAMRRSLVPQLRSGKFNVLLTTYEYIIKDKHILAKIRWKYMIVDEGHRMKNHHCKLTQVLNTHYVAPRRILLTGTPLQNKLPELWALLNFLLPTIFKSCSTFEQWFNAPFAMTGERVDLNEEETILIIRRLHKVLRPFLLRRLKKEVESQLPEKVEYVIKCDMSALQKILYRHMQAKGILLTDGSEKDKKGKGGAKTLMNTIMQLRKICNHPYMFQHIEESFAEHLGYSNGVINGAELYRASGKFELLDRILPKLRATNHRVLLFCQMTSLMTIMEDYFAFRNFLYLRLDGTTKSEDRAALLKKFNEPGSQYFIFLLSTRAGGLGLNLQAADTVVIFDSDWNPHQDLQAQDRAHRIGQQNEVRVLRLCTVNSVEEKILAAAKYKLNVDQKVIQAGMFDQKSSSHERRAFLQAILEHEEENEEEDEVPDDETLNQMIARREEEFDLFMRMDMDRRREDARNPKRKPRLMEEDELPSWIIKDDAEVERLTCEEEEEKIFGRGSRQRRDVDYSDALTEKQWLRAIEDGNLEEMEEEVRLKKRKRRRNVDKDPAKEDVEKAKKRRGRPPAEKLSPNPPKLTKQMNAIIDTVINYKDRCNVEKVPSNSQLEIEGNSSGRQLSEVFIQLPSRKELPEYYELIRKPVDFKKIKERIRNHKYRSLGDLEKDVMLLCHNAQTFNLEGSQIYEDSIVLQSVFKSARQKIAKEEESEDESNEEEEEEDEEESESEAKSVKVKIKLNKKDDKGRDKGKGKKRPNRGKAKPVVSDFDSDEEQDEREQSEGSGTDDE
In short: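 HeLa cells carrying a heterozygous C-terminal HiBiT knock-in on SMARCA2 were seeded at 2500 cells/well. They were treated with 3-fold dilution series, top concentration 10 μM, for 18 h at 37 °C. Remaining SMARCA2-HiBiT was measured by Nano-Glo HiBiT lytic luminescence after 30-60 min at RT, followed by curve fitting.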

T1 sequence (P51532 whole entry): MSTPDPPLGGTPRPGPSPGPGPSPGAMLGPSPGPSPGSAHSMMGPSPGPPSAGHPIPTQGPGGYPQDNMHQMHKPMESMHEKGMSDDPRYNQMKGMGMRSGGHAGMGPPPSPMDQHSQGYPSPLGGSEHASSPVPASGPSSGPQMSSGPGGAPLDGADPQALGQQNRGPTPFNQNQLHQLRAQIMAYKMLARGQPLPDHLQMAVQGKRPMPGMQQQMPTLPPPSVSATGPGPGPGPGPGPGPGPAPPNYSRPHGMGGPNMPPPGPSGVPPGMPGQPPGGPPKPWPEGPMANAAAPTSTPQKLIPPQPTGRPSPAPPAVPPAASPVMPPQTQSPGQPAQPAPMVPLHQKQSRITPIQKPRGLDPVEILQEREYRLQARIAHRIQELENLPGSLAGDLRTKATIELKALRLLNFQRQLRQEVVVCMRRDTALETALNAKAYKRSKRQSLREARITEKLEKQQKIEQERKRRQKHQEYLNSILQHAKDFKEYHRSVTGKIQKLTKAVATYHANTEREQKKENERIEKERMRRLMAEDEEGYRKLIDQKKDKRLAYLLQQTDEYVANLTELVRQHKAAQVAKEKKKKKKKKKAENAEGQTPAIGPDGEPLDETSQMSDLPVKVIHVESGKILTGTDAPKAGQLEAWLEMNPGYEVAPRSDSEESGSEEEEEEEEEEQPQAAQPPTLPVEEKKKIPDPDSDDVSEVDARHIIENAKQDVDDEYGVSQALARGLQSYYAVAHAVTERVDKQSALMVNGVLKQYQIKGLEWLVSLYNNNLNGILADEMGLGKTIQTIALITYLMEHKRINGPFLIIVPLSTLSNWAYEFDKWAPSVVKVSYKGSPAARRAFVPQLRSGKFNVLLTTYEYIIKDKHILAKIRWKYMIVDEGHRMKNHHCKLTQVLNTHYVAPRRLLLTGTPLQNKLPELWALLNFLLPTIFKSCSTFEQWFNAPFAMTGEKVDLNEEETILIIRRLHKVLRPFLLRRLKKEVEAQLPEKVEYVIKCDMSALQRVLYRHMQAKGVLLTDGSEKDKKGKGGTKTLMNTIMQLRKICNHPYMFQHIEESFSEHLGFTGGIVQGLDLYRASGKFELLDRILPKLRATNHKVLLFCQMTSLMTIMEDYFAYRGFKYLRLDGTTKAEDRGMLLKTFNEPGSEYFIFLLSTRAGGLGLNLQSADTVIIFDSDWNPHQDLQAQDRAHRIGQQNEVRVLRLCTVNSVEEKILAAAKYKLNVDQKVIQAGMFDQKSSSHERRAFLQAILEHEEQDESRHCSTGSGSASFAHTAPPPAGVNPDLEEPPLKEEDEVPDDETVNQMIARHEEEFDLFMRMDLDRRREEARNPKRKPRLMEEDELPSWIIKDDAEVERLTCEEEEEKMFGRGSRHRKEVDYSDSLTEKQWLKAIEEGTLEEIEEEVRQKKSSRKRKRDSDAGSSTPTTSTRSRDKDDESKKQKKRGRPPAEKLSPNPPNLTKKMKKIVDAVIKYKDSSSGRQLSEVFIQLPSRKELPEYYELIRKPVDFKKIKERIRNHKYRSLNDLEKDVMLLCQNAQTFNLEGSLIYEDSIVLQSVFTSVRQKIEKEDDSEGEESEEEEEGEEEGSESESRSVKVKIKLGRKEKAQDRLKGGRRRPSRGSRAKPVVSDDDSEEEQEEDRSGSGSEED

DC50 [1]	Dmax [1]	DC50 [2]	Dmax [2]	Structure (SMILES)
> 1000 nM	< 50%	< 100 nM	> 75%	O=C1CCC(N2Cc3ccc(N4CCN(Cc5cnc(O[C@H]6CN7c8cc(-c9cccc(F)c9O)nnc8NC[C@]7(C(F)F)C6)cn5)CC4)cc3C2=O)C(=O)N1 (stereo partly drawn) [Example 52, 3-(6-(4-((5-(((6aS,8R)-6a-(difluoromethyl)-2-(3-fluoro-2-hydroxyphenyl)-5,6,6a,7,8,9-hexahydropyrrolo[1′,2′:4,5]pyrazino[2,3-c]pyridazin-8-yl)oxy)pyrazin-2-yl)methyl)piperazin-1-yl)1-oxoisoindolin-2-yl)piperidine-2,6-dione]
< 100 nM	> 75%	< 100 nM	> 75%	COc1cc(CN2CCN(c3ccc4c(c3)C(=O)N(C3CCC(=O)NC3=O)C4)CC2)cnc1O[C@H]1CN2c3cc(-c4cccc(F)c4O)nnc3NC[C@]2(C(F)F)C1 (stereo partly drawn) [Example 53, 3-(6-(4-((6-(((6aS,8R)-6a-(difluoromethyl)-2-(3-fluoro-2-hydroxyphenyl)-5,6,6a,7,8,9-hexahydropyrrolo[1′,2′:4,5]pyrazino[2,3-c]pyridazin-8-yl)oxy)-5-methoxypyridin-3-yl)methyl)piperazin-1-yl)-1-oxoisoindolin-2-yl)piperidine-2,6-dione]
< 100 nM	50 to 75%	< 100 nM	> 75%	O=C1CCC(N2Cc3ccc(N4CCN(Cc5cnc(O[C@H]6CN7c8cc(-c9cccc(F)c9O)nnc8NC[C@]7(C(F)F)C6)c(F)c5)CC4)cc3C2=O)C(=O)N1 (stereo partly drawn) [Example 54, 3-(6-(4-((6-(((6aS,8R)-6a-(difluoromethyl)-2-(3-fluoro-2-hydroxyphenyl)-5,6,6a,7,8,9-hexahydropyrrolo[1′,2′:4,5]pyrazino[2,3-c]pyridazin-8-yl)oxy)-5-fluoropyridin-3-yl)methyl)piperazin-1-yl)-1-oxoisoindolin-2-yl)piperidine-2,6-dione]
< 100 nM	50 to 75%	< 100 nM	> 75%	Cc1cc(O[C@H]2CN3c4cc(-c5cccc(F)c5O)nnc4NC[C@@]3(C)C2)ncc1CN1CCN(c2ccc3c(c2)C(=O)N(C2CCC(=O)NC2=O)C3)CC1 (stereo partly drawn) [Example 55, 3-(6-(4-((6-(((6aR,8R)-2-(3-fluoro-2-hydroxyphenyl)-6a-methyl-5,6,6a,7,8,9-hexahydropyrrolo[1′,2′:4,5]pyrazino[2,3-c]pyridazin-8-yl)oxy)-4-methylpyridin-3-yl)methyl)piperazin-1-yl)-1-oxoisoindolin-2-yl)piperidine-2,6-dione]
< 100 nM	50 to 75%	< 100 nM	> 75%	CC[C@@]12CNc3nnc(-c4cccc(F)c4O)cc3N1C[C@H](Oc1cc(C)c(CN3CCN(c4ccc5c(c4)C(=O)N([C@H]4CCC(=O)NC4=O)C5)CC3)cn1)C2 [Example 56, 3-(6-(4-((6-(((6aR,8R)-6a-Ethyl-2-(3-fluoro-2-hydroxyphenyl)-5,6,6a,7,8,9-hexahydropyrrolo[1′,2′:4,5]pyrazino[2,3-c]pyridazin-8-yl)oxy)-4-methylpyridin-3-yl)methyl)piperazin-1-yl)-1-oxoisoindolin-2-yl)piperidine-2,6-dione]
100 to 1000 nM	< 50%	< 100 nM	> 75%	CC[C@@]12CNc3nnc(-c4cccc(F)c4O)cc3N1C[C@H](Oc1cnc(CN3CCN(c4ccc5c(c4)C(=O)N([C@H]4CCC(=O)NC4=O)C5)CC3)c(C)n1)C2 [Example 57, (S)-3-(6-(4-((5-(((6aR,8R)-6a-ethyl-2-(3-fluoro-2-hydroxyphenyl)-5,6,6a,7,8,9-hexahydropyrrolo[1′,2′:4,5]pyrazino[2,3-c]pyridazin-8-yl)oxy)-3-methylpyrazin-2-yl)methyl)piperazin-1-yl)-1-oxoisoindolin-2-yl)piperidine-2,6-dione]
> 1000 nM	< 50%	< 100 nM	> 75%	Cc1cc(O[C@H]2CN3c4cc(-c5cccc(F)c5O)nnc4NC[C@@]3(CF)C2)ncc1CN1CCN(c2ccc3c(c2)C(=O)N([C@H]2CCC(=O)NC2=O)C3)CC1 [Example 58, (S)-3-(6-(4-((6-(((6aR,8R)-2-(3-Fluoro-2-hydroxyphenyl)-6a-(fluoromethyl)-5,6,6a,7,8,9-hexahydropyrrolo[1′,2′:4,5]pyrazino[2,3-c]pyridazin-8-yl)oxy)-4-methylpyridin-3-yl)methyl)piperazin-1-yl)-1-oxoisoindolin-2-yl)piperidine-2,6-dione]
< 100 nM	50 to 75%	< 100 nM	> 75%	CC[C@@]12CNc3nnc(-c4cccc(F)c4O)cc3N1C[C@H](Oc1nc(C)c(CN3CCN(c4ccc5c(c4)C(=O)N([C@H]4CCC(=O)NC4=O)C5)CC3)cc1C#N)C2 [Example 59, 5-((4-(2-((S)-2,6-dioxopiperidin-3-yl)-3-oxoisoindolin-5-yl)piperazin-1-yl)methyl)-2-(((6aR,8R)-6a-ethyl-2-(3-fluoro-2-hydroxyphenyl)-5,6,6a,7,8,9-hexahydropyrrolo[1′,2′:4,5]pyrazino[2,3-c]pyridazin-8-yl)oxy)-6-methylnicotinonitrile]
< 100 nM	50 to 75%	< 100 nM	> 75%	CC[C@@]12CNc3nnc(-c4cccc(F)c4O)cc3N1C[C@H](Sc1cc(C)c(CN3CCN(c4ccc5c(c4)C(=O)N([C@H]4CCC(=O)NC4=O)C5)CC3)cn1)C2 [Example 60, 3-(6-(4-((6-(((6aR,8R)-6a-ethyl-2-(3-fluoro-2-hydroxyphenyl)-5,6,6a,7,8,9-hexahydropyrrolo[1′,2′:4,5]pyrazino[2,3-c]pyridazin-8-yl)thio)-4-methylpyridin-3-yl)methyl)piperazin-1-yl)-1-oxoisoindolin-2-yl)piperidine-2,6-dione]
< 100 nM	50 to 75%	< 100 nM	> 75%	CC[C@@]12CNc3nnc(-c4cccc(F)c4O)cc3N1C[C@H](Oc1ncc(CN3CCN(c4ccc5c(c4)C(=O)N(C4CCC(=O)NC4=O)C5)CC3)c(C)c1F)C2 (stereo partly drawn) [Example 61, 3-(6-(4-((6-(((6aR,8R)-6a-ethyl-2-(3-fluoro-2-hydroxyphenyl)-5,6,6a,7,8,9-hexahydropyrrolo[1′,2′:4,5]pyrazino[2,3-c]pyridazin-8-yl)oxy)-5-fluoro-4-methylpyridin-3-yl)methyl)piperazin-1-yl)-1-oxoisoindolin-2-yl)piperidine-2,6-dione]
100 to 1000 nM	< 50%	< 100 nM	> 75%	CC[C@@]12CNc3nnc(-c4cccc(F)c4O)cc3N1C[C@H](Oc1cc(C)c(CN3CCN(c4ccc5c(c4)C(=O)N(C4CCC(=O)NC4=O)C5)CC3)c(C)n1)C2 (stereo partly drawn) [Example 62, 3-(6-(4-((6-(((6aR,8R)-6a-ethyl-2-(3-fluoro-2-hydroxyphenyl)-5,6,6a,7,8,9-hexahydropyrrolo[1′,2′:4,5]pyrazino[2,3-c]pyridazin-8-yl)oxy)-2,4-dimethylpyridin-3-yl)methyl)piperazin-1-yl)-1-oxoisoindolin-2-yl)piperidine-2,6-dione]
< 100 nM	> 75%	< 100 nM	> 75%	CC[C@@]12CNc3nnc(-c4cc(F)cc(F)c4O)cc3N1C[C@H](Oc1ccc(CN3CCN(c4ccc5c(c4)C(=O)N(C4CCC(=O)NC4=O)C5)CC3)cn1)C2 (stereo partly drawn) [Example 63, 3-(6-(4-((6-(((6aR,8R)-2-(3,5-difluoro-2-hydroxyphenyl)-6a-ethyl-5,6,6a,7,8,9-hexahydropyrrolo[1′,2′:4,5]pyrazino[2,3-c]pyridazin-8-yl)oxy)pyridin-3-yl)methyl)piperazin-1-yl)-1-oxoisoindolin-2-yl)piperidine-2,6-dione]
100 to 1000 nM	< 50%	< 100 nM	> 75%	Cc1nc(CN2CCN(c3ccc4c(c3)C(=O)N([C@H]3CCC(=O)NC3=O)C4)CC2)cnc1O[C@H]1CN2c3cc(-c4cccc(F)c4O)nnc3NC[C@@]2(CF)C1 [Example 64, (S)-3-(6-(4-((5-(((6aR,8R)-2-(3-fluoro-2-hydroxyphenyl)-6a-(fluoromethyl)-5,6,6a,7,8,9-hexahydropyrrolo[1′,2′:4,5]pyrazino[2,3-c]pyridazin-8-yl)oxy)-6-methylpyrazin-2-yl)methyl)piperazin-1-yl)-1-oxoisoindolin-2-yl)piperidine-2,6-dione]
100 to 1000 nM	< 50%	< 100 nM	> 75%	Cc1nc(CN2CCC(c3ccc4c(c3)C(=O)N([C@H]3CCC(=O)NC3=O)C4)CC2)cnc1O[C@H]1CN2c3cc(-c4cccc(F)c4O)nnc3NC[C@@]2(CF)C1 [Example 65, (S)-3-(6-(1-((5-(((6aR,8R)-2-(3-Fluoro-2-hydroxyphenyl)-6a-(fluoromethyl)-5,6,6a,7,8,9-hexahydropyrrolo[1′,2′:4,5]pyrazino[2,3-c]pyridazin-8-yl)oxy)-6-methylpyrazin-2-yl)methyl)piperidin-4-yl)-1-oxoisoindolin-2-yl)piperidine-2,6-dione]
< 100 nM	50 to 75%	< 100 nM	> 75%	Cc1nc(CN2CCN(c3ccc4c(c3)C(=O)N([C@H]3CCC(=O)NC3=O)C4)CC2)cnc1O[C@H]1CN2c3cc(-c4cccc(F)c4O)nnc3NC[C@]2(CF)C1 [Example 66, (S)-3-(6-(4-((5-(((6aS,8R)-2-(3-fluoro-2-hydroxyphenyl)-6a-(fluoromethyl)-5,6,6a,7,8,9-hexahydropyrrolo[1′,2′:4,5]pyrazino[2,3-c]pyridazin-8-yl)oxy)-6-methylpyrazin-2-yl)methyl)piperazin-1-yl)-1-oxoisoindolin-2-yl)piperidine-2,6-dione]
